Source: ChEMBL document CHEMBL3045915, “Microwave-assisted, one-pot syntheses and fungicidal activity of polyfluorinated 2-benzylthiobenzothiazoles” (2006)

What was measured:
Format in all cases: functional
Colletotrichum gossypii = test: Fungicidal activity against Colletotrichum gossypii assessed as inhibition of fungal growth at 50 ug/ml after 48 hr
Botrytis cinerea = test: Fungicidal activity against Botryotinia fuckeliana Pers assessed as inhibition of fungal growth at 50 ug/ml after 48 hr
Rhizoctonia solani = test: Fungicidal activity against Rhizoctonia solani assessed as inhibition of fungal growth at 50 ug/ml after 48 hr
Dothiorella gregaria = test: Fungicidal activity against Dothiorella gregaria assessed as inhibition of fungal growth at 50 ug/ml after 48 hr

SMILES: Fc1ccccc1CSc1nc2c(F)cccc2s1
- inhibition at 50 µg/mL (Colletotrichum gossypii): 67%
- inhibition at 50 µg/mL (Botrytis cinerea): 81%
- inhibition at 50 µg/mL (Rhizoctonia solani): 82%
- inhibition at 50 µg/mL (Dothiorella gregaria): 78%

SMILES: Fc1cccc(F)c1CSc1nc2c(F)cccc2s1
- inhibition at 50 µg/mL (Colletotrichum gossypii): 52%
- inhibition at 50 µg/mL (Botrytis cinerea): 78%
- inhibition at 50 µg/mL (Rhizoctonia solani): 74%
- inhibition at 50 µg/mL (Dothiorella gregaria): 63%

SMILES: Fc1ccc(CSc2nc3c(F)cccc3s2)cc1F
- inhibition at 50 µg/mL (Colletotrichum gossypii): 78%
- inhibition at 50 µg/mL (Botrytis cinerea): 97%
- inhibition at 50 µg/mL (Rhizoctonia solani): 92%
- inhibition at 50 µg/mL (Dothiorella gregaria): 89%

SMILES: Fc1ccc2sc(SCc3ccccc3F)nc2c1
- inhibition at 50 µg/mL (Colletotrichum gossypii): 67%
- inhibition at 50 µg/mL (Botrytis cinerea): 83%
- inhibition at 50 µg/mL (Rhizoctonia solani): 82%
- inhibition at 50 µg/mL (Dothiorella gregaria): 81%

SMILES: Fc1ccc2sc(SCc3c(F)cccc3F)nc2c1
- inhibition at 50 µg/mL (Colletotrichum gossypii): 56%
- inhibition at 50 µg/mL (Botrytis cinerea): 78%
- inhibition at 50 µg/mL (Rhizoctonia solani): 80%
- inhibition at 50 µg/mL (Dothiorella gregaria): 74%

SMILES: Fc1ccc2sc(SCc3ccc(F)c(F)c3)nc2c1
- inhibition at 50 µg/mL (Colletotrichum gossypii): 74%
- inhibition at 50 µg/mL (Botrytis cinerea): 69%
- inhibition at 50 µg/mL (Rhizoctonia solani): 86%
- inhibition at 50 µg/mL (Dothiorella gregaria): 78%

SMILES: Fc1ccccc1CSc1nc2ccc(F)c(F)c2s1
- inhibition at 50 µg/mL (Colletotrichum gossypii): 74%
- inhibition at 50 µg/mL (Botrytis cinerea): 86%
- inhibition at 50 µg/mL (Rhizoctonia solani): 84%
- inhibition at 50 µg/mL (Dothiorella gregaria): 81%

SMILES: Fc1cccc(F)c1CSc1nc2ccc(F)c(F)c2s1
- inhibition at 50 µg/mL (Colletotrichum gossypii): 63%
- inhibition at 50 µg/mL (Botrytis cinerea): 69%
- inhibition at 50 µg/mL (Rhizoctonia solani): 82%
- inhibition at 50 µg/mL (Dothiorella gregaria): 81%

SMILES: Fc1ccc(CSc2nc3ccc(F)c(F)c3s2)cc1F
- inhibition at 50 µg/mL (Colletotrichum gossypii): 80%
- inhibition at 50 µg/mL (Botrytis cinerea): 72%
- inhibition at 50 µg/mL (Rhizoctonia solani): 85%
- inhibition at 50 µg/mL (Dothiorella gregaria): 85%

SMILES: Fc1ccccc1CSc1nc2c(Cl)cc(C(F)(F)F)cc2s1
- inhibition at 50 µg/mL (Colletotrichum gossypii): 70%
- inhibition at 50 µg/mL (Botrytis cinerea): 83%
- inhibition at 50 µg/mL (Rhizoctonia solani): 83%
- inhibition at 50 µg/mL (Dothiorella gregaria): 70%

SMILES: Fc1cccc(F)c1CSc1nc2c(Cl)cc(C(F)(F)F)cc2s1
- inhibition at 50 µg/mL (Colletotrichum gossypii): 44%
- inhibition at 50 µg/mL (Botrytis cinerea): 67%
- inhibition at 50 µg/mL (Rhizoctonia solani): 69%
- inhibition at 50 µg/mL (Dothiorella gregaria): 62%

SMILES: Fc1ccc(CSc2nc3c(Cl)cc(C(F)(F)F)cc3s2)cc1F
- inhibition at 50 µg/mL (Colletotrichum gossypii): 37%
- inhibition at 50 µg/mL (Botrytis cinerea): 67%
- inhibition at 50 µg/mL (Rhizoctonia solani): 40%
- inhibition at 50 µg/mL (Dothiorella gregaria): 35%

SMILES: CC(C)(C)C(=O)C(Oc1ccc(Cl)cc1)n1cncn1 (configuration not stated) [TRIADIMEFON]
- inhibition at 50 µg/mL (Colletotrichum gossypii): 95%
- inhibition at 50 µg/mL (Botrytis cinerea): 84%
- inhibition at 50 µg/mL (Rhizoctonia solani): 90%
- inhibition at 50 µg/mL (Dothiorella gregaria): 61%
